From patent US7910579B2, “Benzoxazole derivatives” (Tohoku University, priority 2006, dated 2011)
Read-outs that look alike come from different tables or passages of the source.

Legend:
[1] = system: histidine-requiring Salmonella typhimurium TA100 and TA98 strains; test: Mutagenicity Test (reverse mutation test); type: cell-based; conditions: for Relative activity (mutagenicity): irrespective of the absence or presence of S9mix; for Relative Activity in the presence of S9Mix / Relative Activity in the absence of S9Mix: reverse mutation test
Method: In view of their use, it is desirable that the compounds of the invention have no mutagenicity or have little mutagenicity to a level causing no problem. For investigating the gene mutagenesis of the compounds of the invention, herein carried out was a reverse mutation test with histidine-requiring Salmonella typhimurium TA100 and TA98 strains. Two tests were carried out. One is a test for dose determination test; and the other is for mutagenicity.
The test methods and the mutagenicity of the compounds of the invention are mentioned below. In the dose determination test, six doses of 0.160, 0.800, 4.00, 20.0, 100 and 500 μg/plate (common ratio 5) were tried.
As a result of the dose determination test, when the mutagenicity of the test compound was admitted, then the actual test for mutagenicity was carried out, using the dose capable of giving an accurate dose-reaction curve. When no mutagenicity of the test compound was admitted in the dose determination test and when the growth inhibition of the test cells was admitted therein, then the dose to present the growth inhibition was taken as the maximum dose; and when the growth inhibition was not admitted, then a dose of 5000 μg/plate was taken as the maximum dose. With that, the actual test for mutagenicity was carried out on the level of 6 doses (common ratio 2).
First, a test compound was dissolved or suspended in DMSO, then diluted in order to prepare test compound liquids having a varying concentration.
100 μl of a test compound liquid or a negative control (DMSO) solution was put into a sterilized test tube. Then, for the case in the absence of a metabolic activation system (−S9mix), 500 μl of 0.1 mol/liter sodium-phosphate buffer (pH 7.4) was added to it; and for the case in the presence of a metabolic activation system (+S9mix), 500 μl of S9mix was added to it.
Next, 100 μl of the test strain suspension that had been cultivated with shaking at 37° C. for 8 hours was added to it, and preincubated in a shaking thermostat at 37° C. for 20 minutes. After shaken, 2 ml of top agar was added to it, and the contents were mixed.
Next, the mixture was poured onto a minimal glucose agar plate medium (plate) and spread uniformly thereon, then the top agar was solidified, and the plate was transferred into a thermostat and incubated at 37° C. for 48 hours.
Then, the number of the colonies grown through reverse mutation was counted.
For counting it, […]. After area correction and miss-counting correction, the number of the colonies was computed. When the colony analyzer could not be used owing to the deposition of the test compound or the cell growth inhibition, then the number of the colonies was counted with the naked eye.
In case where the number of the colonies through reverse mutation increased two times or more that of the negative control and where the dose dependency or the reproducibility of the increase was admitted, then the tested sample was decided as positive. When the sample was is decided as positive, then the relative activity that indicates the relative comparative value of the intensity of the mutagenicity of the test compound was obtained according to the following formula: Relative Activity={(number of colonies per plate having the concentration)−(number of colonies per negative control plate)}/the value of concentration (mg/plate).

[2] = target: T1, Amyloid β protein 1-40 (Homo sapiens, UniProt P05067); test: Fluorescence Congo Red Method; type: binding; conditions: compound 10 μM, amyloid β protein 5 μM; for activity at 10 µM: 1 h
T1 construct: Amyloid β protein 1-40 (bought from Peptide Laboratory); purchased Peptide Laboratory
Method: Next described is a screening method for the compounds of the invention. Some of the compounds of the invention could not be screened according to a Thioflavin T method, since their fluorescence wavelength overlaps with that of Thioflavin T. For such compounds, the following novel screening method was introduced. (1) Amyloid β protein 1-40 (bought from Peptide Laboratory) was dissolved in a phosphate buffer (pH 7.4) and left at 37° C. for 4 days. (2) 50 μl of Congo red dissolved in the buffer was applied to a 96-well microplate (final concentration, 0.1, 0.3, 1 μM). (3) 100 μl of amyloid β protein was added to it (final concentration 5 μM), and left as such for 30 minutes. (4) 100 μl of a test compound dissolved in the buffer was added to it (final concentration, 10 μM, and left as such for 60 minutes. (5) Using a fluorescence microplate reader (Spectra Max 190 by Molecular Device), the sample was analyzed at the optimum exciting wavelength and the test wavelength that had been previously determined. (6) The fluorescence intensity in the presence of the test compound, amyloid β protein and Congo red is represented by A; that in the presence of the test compound and Congo red is by B; that in the presence of the test compound and amyloid β protein is by C; and that in the presence of only the test compound is by D. The β structure recognition of the test compound is computed according to the following formula: β structure recognition (%) of test compound={(A−B)/(C−D)}×100. (7) It may be said that the test compound having a higher β structure recognition percentage may have higher binding specificity to amyloid β protein.

[3] = Evaluation of Brain-Penetration and Bone-Seeking Properties of the Labeled Compound in Mouse; type: in vivo; conditions: for Brain radioactivity / blood radioactivity / bone radioactivity: male ICR mouse, intravenous; for bone radioactivity: thighbone; for Bone-seeking property (bone accumulation) / Washout from brain: mouse; for Bone-seeking property (bone accumulation): 2 to 60 minutes after intravenous injection; for Washout from brain: compared with [^18F] BF-227
Method: Separated HPLC fractions containing [^18F] THK-702, [^18F] THK-761, [^18F] THK-763 or [^18F] BF-227 obtained by above mentioned synthesis of label were diluted with distilled water (about 20 mL), loaded thereon Sep-PaktC18 cartridge (produced by Waters Corporation). And the cartridge was washed by distilled water (5 to 10 mL), and labeled compound by EtOH (3 to 5 mL). A proper amount of 5% polysorbate 80-ethanol solution was added in the EtOH eluate and solvent was distilled away by a rotary evaporator with heating at 80° C. Obtained residue (mixture of the label compound and polysorbate 80) was dissolved in saline to prepare the labeled compound-containing saline. The radiochemical purity of chemical after the preparation was 95% or more.
Saline containing [^18F] BF-227, [^18F] THK-702, [^18F] THK-761 or [^18F] THK-763 was administered by intravenous injection through the tail vein of male ICR mouse (6 to 7 week), and brain-penetration and bone-seeking properties of each labeled compound was evaluated in the terms of seeking property of radioactivity in brain-tissue and bone tissue at 2, 30, 60 minutes after the injection.
The radiochemical purity of the saline containing the labeled compound used in the present invention was 95% or more, and the specific radioactivity was 18.5 to 148 GBq/μmol. 1.11 to 2.22 Mbq of the labeled compound per mouse was administrated. In evaluation of seeking property of radioactivity, the proportion of radioactivity in unit weight of evaluated tissue to all dosed radioactivity (% Injected Dose/g of tissue; % ID/g) was used as an index. Gamma counter (1480 WIZARD, produced by PerkinElmer, Inc.) was used in the measurement of radioactivity. Experimental procedures will be explained as follows. The labeled compound was administered by intravenous injection through the tail vein, 2, 30 and 60 minutes after the injection, cervical dislocation of the mouse was conducted under ether anesthesia, and blood was collected from heart rapidly. And then, whole brain (containing cerebellum and brain-stem) and thighbone of mouse were extracted. Moreover, radioactivity and the tissue weight of each sample were measured, the resulting data was used for calculating % ID/g.

T1 sequence (P05067 672-711): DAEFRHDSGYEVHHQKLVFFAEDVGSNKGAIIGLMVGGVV

Row | SMILES | Brain radioactivity ([3]; 2 min) | blood radioactivity ([3]; 2 min) | bone radioactivity ([3]; 2 min) | Brain radioactivity ([3]; 30 min) | blood radioactivity ([3]; 30 min) | bone radioactivity ([3]; 30 min) | Brain radioactivity ([3]; 60 min) | blood radioactivity ([3]; 60 min) | bone radioactivity ([3]; 60 min) | Bone-seeking property (bone accumulation) [3] | Washout from brain [3] | further results
1 | CC1(C)c2ccccc2N2CCC(=O)NC21/C=C/c1ccc(N2CCOCC2)cc1 (stereo not shown) [THK-336] | – | – | – | – | – | – | – | – | – | – | – | Relative activity (mutagenicity) [1]: minus; Relative Activity in the presence of S9Mix [1]: minus; Relative Activity in the absence of S9Mix [1]: minus
2 | N#CC(C#N)=Cc1ncc(/C=C/c2nc3ccc(OCC(CO)CF)cc3o2)s1 (stereo not shown) [THK-683, (E)-2-[2-(2,2-dicyano-ethenylthiazol-5-yl)ethenyl]-6-[(2-fluoromethyl-3-hydoxy)propoxy]benzoxazole] | – | – | – | – | – | – | – | – | – | – | – | Relative activity (mutagenicity) [1]: minus; Relative Activity in the presence of S9Mix [1]: minus; Relative Activity in the absence of S9Mix [1]: minus
3 | OCC(CF)Oc1ccc2nc(/C=C/c3cnc(N4CCSCC4)s3)oc2c1 (stereo not shown) [THK-767, (E)-6-[(1-fluoromethyl-2-hydroxy)ethoxy]-2-[2-(2-thiomorpholinothiazol-5-yl)ethenyl]benzoxazole] | – | – | – | – | – | – | – | – | – | – | – | activity at 10 µM ([2]; Congo red 0.1 μM, read-out: Binding Percentage of Compound in the presence of 0.1 μM CR): 60%; activity at 10 µM ([2]; Congo red 0.3 μM, read-out: Binding Percentage of Compound in the presence of 0.3 μM CR): 29.9%; activity at 10 µM ([2]; Congo red 1 μM, read-out: Binding Percentage of Compound in the presence of 1 μM CR): 15.9%
4 | Cc1ccc2c(c1)sc(-c1ccc(N(C)C)cc1)[n+]2C.[Cl-] [Thioflavin T, reference compound] | – | – | – | – | – | – | – | – | – | – | – | Binding Percentage of Compound in the presence of 0.1 μM CR ([2]; Congo red 0.1 μM): 49.4%; Binding Percentage of Compound in the presence of 0.3 μM CR ([2]; Congo red 0.3 μM): 22.3%; Binding Percentage of Compound in the presence of 1 μM CR ([2]; Congo red 1 μM): 9.3%
5 | CN(C)c1ncc(C=Cc2nc3ccc(OCCF)cc3o2)s1 [[^18F]BF-227, 2-[2-(2-dimethylaminothiazol-5-yl)ethenyl]-6-(2-fluoroethoxy)benzoxazol, reference compound] | 6.05 % ID/g | 2.93 % ID/g | 1.59 % ID/g | 1.91 % ID/g | 2.14 % ID/g | 4.38 % ID/g | 1.67 % ID/g | 2.09 % ID/g | 7.04 % ID/g | significant time-dependent bone-seeking property after the injection has been found | – | –
6 | OCC(CF)Oc1ccc2nc(/C=C/c3cnc(N4CCOCC4)s3)oc2c1 (stereo not shown) [[^18F]THK-702] | 4.15 % ID/g | 3.34 % ID/g | 1.95 % ID/g | 0.53 % ID/g | 1.06 % ID/g | 0.92 % ID/g | 0.35 % ID/g | 0.67 % ID/g | 1.16 % ID/g | have not found | excellent characteristics in washout from brain more than [^18F] BF-227 | –
7 | CNc1ncc(/C=C/c2nc3ccc(OC(CO)CF)cc3o2)s1 (stereo not shown) [[^18F]THK-761] | 1.67 % ID/g | 3.16 % ID/g | 1.36 % ID/g | 0.22 % ID/g | 0.78 % ID/g | 0.88 % ID/g | 0.13 % ID/g | 0.34 % ID/g | 0.95 % ID/g | have not found | excellent characteristics in washout from brain more than [^18F] BF-227 | –
8 | CN(C)c1ncc(/C=C/c2nc3ccc(OC(CO)CF)cc3o2)s1 (stereo not shown) [[^18F]THK-763] | 4.64 % ID/g | 3.65 % ID/g | 1.84 % ID/g | 0.53 % ID/g | 1.19 % ID/g | 0.88 % ID/g | 0.28 % ID/g | 0.64 % ID/g | 1.38 % ID/g | have not found | excellent characteristics in washout from brain more than [^18F] BF-227 | –
